Measurements: patent US12258336B2, “Preparation of seimicarbazide-sensitive amine oxidase inhibitor and use thereof” (SHANGHAI ENNOVABIO PHARMACEUTICALS CO., LTD., priority 2018, dated 2025)
Like-named read-outs stand apart in the source and are kept apart here.

Experiments:
rat SSAO protein = target: T1, rat SSAO protein (Rattus norvegicus, UniProt O08590); test: In vitro inhibitory activity on SSAO/VAP-1 (MAO-Glo assay), rat; assay type: biochemical
T1 construct: Eli Lilly (provided, not a catalogue product)
T1 sequence (O08590 1-763): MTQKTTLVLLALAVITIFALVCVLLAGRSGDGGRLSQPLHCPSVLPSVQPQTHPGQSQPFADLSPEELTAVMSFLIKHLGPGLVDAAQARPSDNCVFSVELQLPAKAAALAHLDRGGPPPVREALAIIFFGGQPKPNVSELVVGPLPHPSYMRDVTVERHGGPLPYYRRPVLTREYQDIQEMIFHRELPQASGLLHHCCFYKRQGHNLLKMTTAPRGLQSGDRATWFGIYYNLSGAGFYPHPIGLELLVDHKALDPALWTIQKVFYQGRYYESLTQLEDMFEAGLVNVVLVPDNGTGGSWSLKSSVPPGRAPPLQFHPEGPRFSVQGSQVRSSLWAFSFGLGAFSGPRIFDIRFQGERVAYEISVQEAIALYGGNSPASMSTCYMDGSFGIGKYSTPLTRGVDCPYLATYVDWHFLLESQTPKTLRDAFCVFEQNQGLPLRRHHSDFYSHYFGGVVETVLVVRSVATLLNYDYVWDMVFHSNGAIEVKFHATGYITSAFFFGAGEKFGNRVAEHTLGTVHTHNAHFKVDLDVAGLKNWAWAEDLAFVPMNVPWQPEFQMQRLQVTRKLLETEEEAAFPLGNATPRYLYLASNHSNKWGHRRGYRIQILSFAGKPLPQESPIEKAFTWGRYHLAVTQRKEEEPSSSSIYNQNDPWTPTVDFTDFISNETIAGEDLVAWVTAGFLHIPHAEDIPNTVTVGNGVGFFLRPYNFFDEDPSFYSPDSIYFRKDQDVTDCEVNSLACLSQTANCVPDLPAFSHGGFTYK
Procedure: This assay was used to evaluate the in vitro inhibitory activity of the compounds on SSAO/VAP-1 of different species. Recombinant human SSAO protein, mouse SSAO protein or rat SSAO protein (provided by Eli Lilly) were used. The enzyme activity detection kit, MAO-Glo Assay kit (V1402) was purchased from Promega. Enzyme reaction buffer (50 mM HEPES, 120 mM NaCl, 5 mM KCl, 2 mM CaCl2, 1.4 mM MgCl2, 0.001% Tween-20, pH7.4) was prepared. The test compound was dissolved in DMSO and diluted by 3-fold concentration in gradient. The final concentration of test compound in a 10 μL reaction system was 1 μM to 0.05 nM when SSAO was detected. The content of DMSO in the detection reaction was 1%. After the solution of test compound in DMSO was diluted in the enzyme reaction buffer at a volume ratio of 1:25, 2.5 μL of which was added to each well of detection plate, two replicates for each concentration. 5 μL of SSAO protein diluted in the enzyme reaction buffer was added to each well, the final concentration of which was 10 nM to 80 nM in 10 μL reaction system. The mixture was incubated at room temperature for 10 minutes. 2.5 μL of the reaction substrate diluted in the enzyme reaction buffer was added to each well, the final concentration of which was 10 μM in 10 μL reaction system. After the mixture was reacted at room temperature for 120 minutes, 10 μL of detection reagent was added to each well. The reaction solution was incubated for 20 minutes at room temperature, and the plate was read with Synergy Neo 2 for detection. The value was converted into inhibition rate by the following formula: Inhibition rate=(Signalpositive−Signaltest)/(Signalpositive−Signalnegative)×100%
Signalpositive was positive control without test compound. Signalnegative was negative control without test compound and SSAO enzyme, and Signaltest was detection value of each compound at different concentrations. IC50 value was calculated by using 4 parameter curve fitting.

SSAO/VAP-1 = target: T2, SSAO/VAP-1 (Rattus norvegicus, UniProt O08590); test: Inhibitory activity on SSAO/VAP-1 in animal tissues after oral administration; assay type: in vivo; conditions: 24 hours post single administration, mean ± SEM
T2 construct: from tissue; host or cells: rat plasma, brain, retina, small intestine, lung, liver, kidney
T2 sequence (O08590 1-763): T1 sequence (O08590 1-763)
Procedure: MAO-Glo Assay kit (Promega, V1402) was used to determine the activity of SSAO in animal tissues. After test compounds were adminstered to the animal, SSAO enzyme activity was calculated by measuring the activity of the monoamine oxidases in the animal tissue homogenate that was insensitive to MAO inhibitors Clogyline and Pargyline. The compounds were orally administered to rats at different doses, and same volume of vehicle was orally administered to control animals. Animal plasma, brain, retina, small intestine, lung, liver, and kidney were respectively collected 24 hours after administration (the animals were perfused with PBS before the collection of small intestine, lung, liver, and kidney) and stored in a −80° C. refrigerator until analysis. Each tissue was homogenized in tissue homogenate lysis buffer (20 mM HEPES, pH 7.4, 150 mM NaCl, 1 mM EDTA, 1 mM EGTA, 1% Triton X-100 and 1× Roche Complete protease inhibitor tablet). The homogenate was centrifuged at 12000 rpm at 4° C. for 30 minutes to remove tissue fragments. 5 μL of supernatant and 2 μL of mixture of Clogyline (10 μM) and Pargyline (10 μM) were incubated for 10 minutes at room temperature. Then 2 μL of substrate from MAO-Glo assay kit was added to the mixture, and reacted at room temperature for 60 minutes. Detection reagents were added to quench the reaction according to instructions. The fluorescein data was read by Biotek Neo2. The activity of monoamine oxidase in tissues that is not sensitive to MAO inhibitors was used to represent the activity of SSAO. Percentage of SSAO activity in administered animals was compared with that of control animals to calculate the compound inhibition rate.

[1] = brain, read-out: remaining SSAO activity percentage (SSAO activity %), Brain
[2] = plasma, read-out: remaining SSAO activity percentage (SSAO activity %), Plasma
[3] = retina, read-out: remaining SSAO activity percentage (SSAO activity %), Retina
[4] = kidney, read-out: remaining SSAO activity percentage (SSAO activity %), kidney
[5] = liver, read-out: remaining SSAO activity percentage (SSAO activity %), Liver
[6] = lung, read-out: remaining SSAO activity percentage (SSAO activity %), Lung
[7] = small intestine, read-out: remaining SSAO activity percentage (SSAO activity %), Small intestine

COC1CC2CC1CN2c1ncc(OC/C(=C/F)CN)cn1 (stereo not drawn) [Example 2]
IC50 (rat SSAO protein): < 100 nM | remaining activity at 0.6 mg/kg (SSAO/VAP-1; [1]): 49.1 ± 21.2% | remaining activity at 0.6 mg/kg (SSAO/VAP-1; [2]): 24.3 ± 5.2% | remaining activity at 0.6 mg/kg (SSAO/VAP-1; [3]): 28.7 ± 8.5%

NC/C(=C\F)COc1cnc(N2CCC3(CC2)COC3)nc1 [Example 3]
remaining activity at 1 mg/kg (SSAO/VAP-1; [1]): 55.6 ± 10.5% | remaining activity at 1 mg/kg (SSAO/VAP-1; [2]): 15.2 ± 2.6% | remaining activity at 1 mg/kg (SSAO/VAP-1; [3]): 8.9 ± 3.2%

NC/C(=C\F)COc1cnc(N2CCN(C3COC3)CC2)nc1 [Example 4, (E)-3-fluoro-2-(((2-(4-(oxbutan-3-yl)piperazin-1-yl)pyrimidin-5-yl)oxo)methyl)prop-2-en-1-amine]
IC50 (rat SSAO protein): < 100 nM | remaining activity at 0.005 mg/kg (SSAO/VAP-1; [1]): 98.3 ± 25.4% | remaining activity at 0.005 mg/kg (SSAO/VAP-1; [4]): 99.2 ± 4.1% | remaining activity at 0.005 mg/kg (SSAO/VAP-1; [5]): 108 ± 33.5% | remaining activity at 0.005 mg/kg (SSAO/VAP-1; [6]): 94.9 ± 17.2% | remaining activity at 0.005 mg/kg (SSAO/VAP-1; [2]): 61.7 ± 8.2% | remaining activity at 0.005 mg/kg (SSAO/VAP-1; [3]): 65 ± 14% | remaining activity at 0.025 mg/kg (SSAO/VAP-1; [1]): 143 ± 68.3% | remaining activity at 0.025 mg/kg (SSAO/VAP-1; [4]): 58.7 ± 12.1% | remaining activity at 0.025 mg/kg (SSAO/VAP-1; [5]): 14.4 ± 8.1% | remaining activity at 0.025 mg/kg (SSAO/VAP-1; [6]): 64 ± 20.3% | remaining activity at 0.025 mg/kg (SSAO/VAP-1; [2]): 58.6 ± 4.2% | remaining activity at 0.025 mg/kg (SSAO/VAP-1; [3]): 49.1 ± 7.1% | remaining activity at 0.12 mg/kg (SSAO/VAP-1; [1]): 75.4 ± 7.4% | remaining activity at 0.12 mg/kg (SSAO/VAP-1; [4]): 46.3 ± 3.5% | remaining activity at 0.12 mg/kg (SSAO/VAP-1; [5]): 40.1 ± 8.2% | remaining activity at 0.12 mg/kg (SSAO/VAP-1; [6]): 39.8 ± 11.3% | remaining activity at 0.12 mg/kg (SSAO/VAP-1; [2]): 33.7 ± 1.9% | remaining activity at 0.12 mg/kg (SSAO/VAP-1; [3]): 25.1 ± 5.3% | remaining activity at 0.12 mg/kg (SSAO/VAP-1; [7]): 96.9 ± 21.7% | remaining activity at 0.6 mg/kg (SSAO/VAP-1; [1]): 26.5 ± 11.8% | remaining activity at 0.6 mg/kg (SSAO/VAP-1; [4]): 26.2 ± 10.1% | remaining activity at 0.6 mg/kg (SSAO/VAP-1; [5]): 3 ± 7.6% | remaining activity at 0.6 mg/kg (SSAO/VAP-1; [6]): 14.1 ± 3.8% | remaining activity at 0.6 mg/kg (SSAO/VAP-1; [2]): 12.9 ± 2.2% | remaining activity at 0.6 mg/kg (SSAO/VAP-1; [3]): 8 ± 1.2% | remaining activity at 0.6 mg/kg (SSAO/VAP-1; [7]): 38.9 ± 3.2% | remaining activity at 3 mg/kg (SSAO/VAP-1; [1]): 22.1 ± 7.7% | remaining activity at 3 mg/kg (SSAO/VAP-1; [4]): 0.7 ± 1.8% | remaining activity at 3 mg/kg (SSAO/VAP-1; [5]): 5.3 ± 3.2% | remaining activity at 3 mg/kg (SSAO/VAP-1; [6]): 4.6 ± 2.5% | remaining activity at 3 mg/kg (SSAO/VAP-1; [2]): 1.8 ± 0.2% | remaining activity at 3 mg/kg (SSAO/VAP-1; [3]): 5.2 ± 2.4% | remaining activity at 3 mg/kg (SSAO/VAP-1; [7]): 11.1 ± 4.4% | remaining activity at 15 mg/kg (SSAO/VAP-1; [1]): 4 ± 1.7% | remaining activity at 15 mg/kg (SSAO/VAP-1; [4]): 2.4 ± 1.3% | remaining activity at 15 mg/kg (SSAO/VAP-1; [5]): -2.4 ± 5.4% | remaining activity at 15 mg/kg (SSAO/VAP-1; [6]): 2.2 ± 0.2% | remaining activity at 15 mg/kg (SSAO/VAP-1; [2]): 1.1 ± 0.4% | remaining activity at 15 mg/kg (SSAO/VAP-1; [3]): 3 ± 2.2% | remaining activity at 15 mg/kg (SSAO/VAP-1; [7]): 1.1 ± 0.9%

CC1(C)CN(c2ncc(OC/C(=C/F)CN)cn2)CCN1C1COC1 [Example 10]
remaining activity at 0.6 mg/kg (SSAO/VAP-1; [1]): 27.3 ± 1.8% | remaining activity at 0.6 mg/kg (SSAO/VAP-1; [2]): 5.8 ± 2.1% | remaining activity at 0.6 mg/kg (SSAO/VAP-1; [3]): 8 ± 0.8%
